These results are taken from US8222279B2, “Small molecule insulin mimetics absent quinones” (Duke University, priority 2006, dated 2012).

In assay [1] the test system is differentiated PC12 neurons. In words: Protection of differentiated PC12 neurons from apoptotic cell death induced by NGF withdrawal. Conditions: 100 ng/ml NGF; 48 h; control cells 64±1%. The class given is cell-based. The procedure: A library of asterriquinones was screened using a 96-well ELISA assay that detects phosphorylated TrkA, the NGF receptor. We identified many compounds from this library that activated TrkA in CHO cells. The library was also screened for dose-dependent cytotoxicity in these cells. From these assays, we selected two compounds 1H5 and 5E5 for further study based on NGF agonist activity and low toxicity. […] 1H5 at 30 μM has 49±4% the effect of 100 ng/ml NGF. […] Despite this, 1H5 can protect differentiated PC12 neurons from apoptotic cell death induced by NGF withdrawal for 48 h. Cell death is 64±1% in control PC12 cells, 52±3% in cell treated with 30 μM 1H5, and 18±6% in cells treated with 100 ng/ml NGF. […] 5E5 at 30 μM has 212±11% the effect of 100 ng/ml NGF on CHO-Trk cells. It is non-toxic at concentrations up to 10 μM. […] 5E5 also causes phosphorylation of FRS2/SNT, a differentiation-specific target of NGF in neurons and PC12 cells (2.7-fold v.s. NGF).

A further assay concerns the target T1, human insulin receptor (Homo sapiens, UniProt P06213).
T1 construct: expressed in transfected cells; host or cells: CHO-IR (Chinese hamster ovary cells)
The assay is described as follows: Insulin receptor autophosphorylation (phosphotyrosines 1162/1163) immunoblot in CHO-IR cells. The class given is cell-based. The conditions noted are these: increasing concentrations, 10 min at 37° C., immunoblot not shown. The text has this:
These compounds were examined in a cell-based assay for their ability to mimic the action of insulin. In this case, Chinese hamster ovary (CHO) cells stably transfected with a gene for human insulin receptor and expressing it on their surface were used. CHO-IR cells were stimulated with increasing concentrations of insulin, LDIV122 (same as 198), LDIV148 (same as 196), ZL-196 (an insulin mimic that includes a quinone), and LDIV99 (same as 194). Whole-cell lysates were immunoblotted with antibodies to phosphotyrosines 1162 and 1163 that lie on the activation loop in the beta-subunit of the insulin receptor.
Materials. Antibodies to tyrosine phosphorylated IR(Tyr1162/Tyr1163) are from BioSource (Camarillo, Calif.).
CHO-IR cells (Chinese hamster ovary cells overexpressing the β isoform insulin receptor) were cultured in Ham's F12 supplemented with 10% FCS, 2 mM glutamax and gentamicin at 37° C. in a 5% CO2 atmosphere. Cells were serum starved for 72 h in 12-well plates, then stimulated with increasing concentrations of insulin or compounds in KRP-Hepes for 10 min at 37° C. The cells are washed with ice-cold phosphate-buffered saline and solubilized in 2×SDS-sample buffer (50 mM Tris-HCl, pH 7.4, 5% glycerol, 2% SDS, 0.005% bromophenol blue) containing 2 mM sodium orthovanadate and 200 mM sodium fluoride. […]
For orientation: In western blotting, separated proteins are transferred to a membrane and probed.

T1 sequence (P06213 763-1382 limits assumed): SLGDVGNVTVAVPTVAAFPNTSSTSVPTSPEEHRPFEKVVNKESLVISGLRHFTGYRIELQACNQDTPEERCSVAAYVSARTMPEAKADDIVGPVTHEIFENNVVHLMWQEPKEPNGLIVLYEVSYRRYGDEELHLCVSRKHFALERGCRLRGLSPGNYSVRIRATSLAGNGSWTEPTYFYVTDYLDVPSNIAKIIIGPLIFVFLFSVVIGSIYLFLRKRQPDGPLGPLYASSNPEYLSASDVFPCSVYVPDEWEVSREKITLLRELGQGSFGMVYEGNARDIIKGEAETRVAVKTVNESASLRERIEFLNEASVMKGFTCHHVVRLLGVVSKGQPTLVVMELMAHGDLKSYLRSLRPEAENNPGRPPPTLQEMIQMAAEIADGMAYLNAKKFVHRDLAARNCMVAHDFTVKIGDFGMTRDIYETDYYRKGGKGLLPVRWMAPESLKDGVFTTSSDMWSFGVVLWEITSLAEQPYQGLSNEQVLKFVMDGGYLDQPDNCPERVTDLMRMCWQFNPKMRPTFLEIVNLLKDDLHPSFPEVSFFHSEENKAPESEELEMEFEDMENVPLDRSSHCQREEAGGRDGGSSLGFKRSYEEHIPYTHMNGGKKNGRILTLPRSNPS
T1 sequence (P06213 28-758 partner limits assumed): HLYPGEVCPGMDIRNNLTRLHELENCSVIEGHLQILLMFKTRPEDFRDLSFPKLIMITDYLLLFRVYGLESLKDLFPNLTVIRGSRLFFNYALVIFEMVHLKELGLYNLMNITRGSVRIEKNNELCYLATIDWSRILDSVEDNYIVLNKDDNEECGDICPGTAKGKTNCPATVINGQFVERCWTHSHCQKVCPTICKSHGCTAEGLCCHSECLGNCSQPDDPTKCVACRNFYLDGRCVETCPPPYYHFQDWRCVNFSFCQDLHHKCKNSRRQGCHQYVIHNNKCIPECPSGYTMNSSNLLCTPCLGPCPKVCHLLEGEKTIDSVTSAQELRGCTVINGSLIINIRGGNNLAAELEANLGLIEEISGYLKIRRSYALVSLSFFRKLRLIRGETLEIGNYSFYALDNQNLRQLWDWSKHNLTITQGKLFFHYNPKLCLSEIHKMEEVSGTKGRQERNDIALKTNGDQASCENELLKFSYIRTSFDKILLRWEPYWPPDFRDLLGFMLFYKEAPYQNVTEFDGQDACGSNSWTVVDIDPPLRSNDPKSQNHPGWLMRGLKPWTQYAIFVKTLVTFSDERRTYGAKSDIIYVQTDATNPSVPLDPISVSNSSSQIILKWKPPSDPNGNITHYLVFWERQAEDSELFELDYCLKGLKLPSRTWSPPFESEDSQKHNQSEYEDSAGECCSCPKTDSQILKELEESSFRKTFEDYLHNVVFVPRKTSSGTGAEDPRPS

In assay [1], “NGF: nerve growth factor, ligand of TrkA, used as reference at 100 ng/ml” displayed a Cell death of 18±6%.

`CC(C)=CCc1cccc2c(-c3oc(CO)cc(=O)c3O)c[nH]c12` [LDIV99, 3-Hydroxy-6-hydroxymethyl-2-[7-(3-methyl-but-2-enyl)-1H-indol-3-yl]-pyran-4-one]: on human insulin receptor, the “Autophosphorylation of the insulin receptor” value is “dose-dependent autophosphorylation”.

As to `CC(C)=CCc1cccc2c(-c3c(O)c(=O)cc(CO)n3C)c[nH]c12` [LDIV148, 3-Hydroxy-6-hydroxymethyl-1-methyl-2-[7-(3-methyl-but-2-enyl)-1H-indol-3-yl]-pyridin-4-one], the “Autophosphorylation of the insulin receptor” value at human insulin receptor is listed as “dose-dependent autophosphorylation”.
